Results as given in patent US9346812B2, “Substituted pyrrolopyrimidine compounds, compositions thereof, and methods of treatment therewith” (Signal Pharmaceutical LLC, priority 2013, dated 2016).

system: CAL51 cell proliferation; test: Cell Titer Glo Proliferation Assay (CAL51); format: cell-based, human; conditions: Homo sapiens, CAL-51; CAL51 cell proliferation, 72 h, Cell Titer Glo luminescence; read-out: Act. Level
Procedure, shortened: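 Viability is measured by CellTiter-Glo luminescence after 72 h of compound exposure. CAL51 cells were seeded in growth medium with 10% FBS and 2 mM glutamine, cultured overnight, then dosed with compound dilutions, vehicle held at 0.2% DMSO.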

Question: With `CNC(=O)c1ccc(Nc2nc(OC3CCOCC3)c3c(-c4ncco4)c[nH]c3n2)c(OC)c1` [Example 173, 3-methoxy-N-methyl-4-(5-(oxazol-2-yl)-4-(tetrahydro-2H-pyran-4-yloxy)-7H-pyrrolo[2,3-d]pyrimidin-2-ylamino)benzamide] as the compound, how does the IC50 read?
Answer: Its IC50 is 400 to 1000 nM.

Question: With `CNC(=O)c1ccc(Nc2nc(OC3CCCC3)c3c(-c4ccc(O)c(C#N)c4)c[nH]c3n2)c(OC)c1` [Example 33, 4-(5-(3-cyano-4-hydroxyphenyl)-4-(cyclopentyloxy)-7H-pyrrolo[2,3-d]pyrimidin-2-ylamino)-3-methoxy-N-methylbenzamide] as the compound, how does the IC50 read?
Answer: The IC50 was less than 100 nM.

Question: `COc1cc(C(=O)N[C@H]2CCOC2)ccc1Nc1nc(OC2CCCC2)c2c(-c3ccc4nc(C)oc4c3)c[nH]c2n1` [Example 267, (S)-4-(4-(cyclopentyloxy)-5-(2-methylbenzo[d]oxazol-6-yl)-7H-pyrrolo[2,3-d]pyrimidin-2-ylamino)-3-methoxy-N-(tetrahydrofuran-3-yl)benzamide] was tested. Which IC50 did it give?
Answer: The IC50 was 100 to 400 nM.

Question: For `COc1cc(C(=O)NC2(C)COC2)ccc1Nc1nc(OC2CCCC2)c2c(-c3ccc4nc(C)oc4c3)c[nH]c2n1` [Example 301, 4-(4-(cyclopentyloxy)-5-(2-methylbenzo[d]oxazol-6-yl)-7H-pyrrolo[2,3-d]pyrimidin-2-ylamino)-3-methoxy-N-(3-methyloxetan-3-yl)benzamide], which IC50 is on record?
Answer: Its IC50 is 100 to 400 nM.

Question: `COc1nc(Nc2ccc(C(=O)N3CCOCC3)cc2Cl)nc2[nH]cc(-c3ccc(-c4nnc[nH]4)cc3)c12` [Example 68, (4-(5-(4-(4H-1,2,4-triazol-3-yl)phenyl)-4-methoxy-7H-pyrrolo [2,3-d]pyrimidin-2-ylamino)-3-chlorophenyl)(morpholino) methanone] was tested. Which IC50 did it give?
Answer: The IC50 was 100 to 400 nM.

Question: How did the IC50 turn out when `Cc1nc2ccc(-c3c[nH]c4nc(Nc5ccc(C(=O)N(C)C)cc5C)nc(OC5CCOCC5)c34)cc2o1` [Example 70, N,N,3-trimethyl-4-(5-(2-methylbenzo[d]oxazol-6-yl)-4-(tetrahydro-2H-pyran-4-yloxy)-7H-pyrrolo[2,3-d]pyrimidin-2-ylamino)benzamide] was run?
Answer: The IC50 was 100 to 400 nM.

Question: How did the IC50 turn out when `CNC(=O)c1ccc(Nc2nc(OC3CCCC3)c3c(-c4ccncc4)c[nH]c3n2)c(OC)c1` [Example 66, 4-(4-(cyclopentyloxy)-5-(pyridin-4-yl)-7H-pyrrolo[2,3-d]pyrimidin-2-ylamino)-3-methoxy-N-methylbenzamide] was run?
Answer: The IC50 was less than 100 nM.

Question: How did the IC50 turn out when `COc1cc(C(=O)N2CC2)ccc1Nc1nc(OC2CCCC2)c2c(-c3ccc4nc(C)oc4c3)c[nH]c2n1` [Example 262, aziridin-1-yl(4-(4-(cyclopentyl-oxy)-5-(2-methylbenzo[d]oxazol-6-yl)-7H-pyrrolo[2,3-d]pyrimidin-2-ylamino)-3-methoxyphenyl) methanone] was run?
Answer: Its IC50 is 100 to 400 nM.

Question: `COc1cc(C(=O)NC2COC2)ccc1Nc1nc(O[C@H]2CC[C@@](C)(O)CC2)c2c(-c3ccc4nc(C)oc4c3)c[nH]c2n1` [Example 314, 4-(4-((1s,4s)-4-hydroxy-4-methylcyclohexyloxy)-5-(2-methylbenzo[d]oxazol-6-yl)-7H-pyrrolo[2,3-d]pyrimidin-2-ylamino)-3-methoxy-N-(oxetan-3-yl)benzamide] was tested. Which IC50 did it give?
Answer: Its IC50 is less than 100 nM.

Question: How did the IC50 turn out when `COc1cc(C(=O)NCC2COCCO2)ccc1Nc1nc(OC2CCCC2)c2c(-c3ccc4nc(C)oc4c3)c[nH]c2n1` (stereo not shown) [Example 281, N-((1,4-dioxan-2-yl)methyl)-4-(4-(cyclopentyloxy)-5-(2-methylbenzo[d]oxazol-6-yl)-7H-pyrrolo[2,3-d]pyrimidin-2-ylamino)-3-methoxybenzamide] was run?
Answer: Its IC50 is 100 to 400 nM.

Question: How did the IC50 turn out when `COc1cc(C(=O)N(C)CCO)ccc1Nc1nc(OC2CCCC2)c2c(-c3ccc4nc(C)oc4c3)c[nH]c2n1` [Example 233, 4-(4-(cyclopentyloxy)-5-(2-methylbenzo[d]oxazol-6-yl)-7H-pyrrolo[2,3-d]pyrimidin-2-ylamino)-N-(2-hydroxyethyl)-3-methoxy-N-methylbenzamide] was run?
Answer: The IC50 was less than 100 nM.

Question: `COc1cc(C(=O)NCCCO)ccc1Nc1nc(OC2CCCC2)c2c(-c3ccc4nc(C)oc4c3)c[nH]c2n1` [Example 232, 4-(4-(cyclopentyloxy)-5-(2-methylbenzo[d]oxazol-6-yl)-7H-pyrrolo[2,3-d]pyrimidin-2-ylamino)-N-(3-hydroxypropyl)-3-methoxybenzamide] was tested. Which IC50 did it give?
Answer: Its IC50 is less than 100 nM.

Question: With `CNC(=O)c1ccc(Nc2nc(OC3CCCC3)c3c(-c4cc[nH]n4)c[nH]c3n2)c(OC)c1` [Example 80, 4-(4-(cyclopentyloxy)-5-(1H-pyrazol-3-yl)-7H-pyrrolo[2,3-d]pyrimidin-2-ylamino)-3-methoxy-N-methylbenzamide] as the compound, how does the IC50 read?
Answer: Its IC50 is less than 100 nM.

Question: With `COc1cc(C(=O)NC2CN(C(C)=O)C2)ccc1Nc1nc(OC2CCCC2)c2c(-c3ccc4nc(C)oc4c3)c[nH]c2n1` [Example 308, N-(1-acetylazetidin-3-yl)-4-(4-(cyclopentyloxy)-5-(2-methylbenzo[d]oxazol-6-yl)-7H-pyrrolo[2,3-d]pyrimidin-2-ylamino)-3-methoxybenzamide] as the compound, how does the IC50 read?
Answer: Its IC50 is 100 to 400 nM.

Question: With `CNC(=O)c1ccc(Nc2nc(NC3CC3)c3c(-c4cnn(C)c4)c[nH]c3n2)c(OC)c1` [Example 211, 4-(4-(cyclopropylamino)-5-(1-methyl-1H-pyrazol-4-yl)-7H-pyrrolo[2,3-d]pyrimidin-2-ylamino)-3-methoxy-N-methylbenzamide] as the compound, how does the IC50 read?
Answer: Its IC50 is 100 to 400 nM.

Question: For `CNC(=O)c1ccc(Nc2nc(OC3CCOCC3)c3c(-c4ccc(-c5nccn5C)cc4)c[nH]c3n2)c(OC)c1` [Example 195, 3-methoxy-N-methyl-4-(5-(4-(1-methyl-1H-imidazol-2-yl)phenyl)-4-(tetrahydro-2H-pyran-4-yloxy)-7H-pyrrolo[2,3-d]pyrimidin-2-ylamino)benzamide], which IC50 is on record?
Answer: The IC50 was 1000 to 10000 nM.

Question: For `COc1cc(C(=O)N(C)C2COC2)ccc1Nc1nc(OC2CCCC2)c2c(-c3ccc4nc(C)oc4c3)c[nH]c2n1` [Example 272, 4-(4-(cyclopentyloxy)-5-(2-methylbenzo[d]oxazol-6-yl)-7H-pyrrolo[2,3-d]pyrimidin-2-ylamino)-3-methoxy-N-methyl-N-(oxetan-3-yl)benzamide], which IC50 is on record?
Answer: Its IC50 is less than 100 nM.

Question: `CNC(=O)c1ccc(Nc2nc(OC3CCCC3)c3c(-c4cncc(O)c4)c[nH]c3n2)c(OC)c1` [Example 51, 4-(4-(cyclopentyloxy)-5-(5-hydroxypyridin-3-yl)-7H-pyrrolo [2,3-d]pyrimidin-2-ylamino)-3-methoxy-N-methylbenzamide] was tested. Which IC50 did it give?
Answer: Its IC50 is less than 100 nM.

Question: With `CNC(=O)c1ccc(Nc2nc(OC)c3c(-c4ccncc4)c[nH]c3n2)c(C)c1` [Example 156, 4-(4-methoxy-5-(pyridin-4-yl)-7H-pyrrolo[2,3-d]pyrimidin-2-ylamino)-N,3-dimethylbenzamide] as the compound, how does the IC50 read?
Answer: The IC50 was 100 to 400 nM.

Question: How did the IC50 turn out when `COc1cc(C#N)ccc1Nc1nc(OC2CCCC2)c2c(-c3ccc4nc(C)oc4c3)c[nH]c2n1` [Example 277, 4-(4-(cyclopentyloxy)-5-(2-methylbenzo[d]oxazol-6-yl)-7H-pyrrolo[2,3-d]pyrimidin-2-ylamino)-3-methoxybenzonitrile] was run?
Answer: Its IC50 is 100 to 400 nM.

Question: For `CNC(=O)c1ccc(Nc2nc(OC)c3c(-c4ccc(OC)nc4)c[nH]c3n2)c(OC)c1` [Example 118, 3-methoxy-4-(4-methoxy-5-(6-methoxypyridin-3-yl)-7H-pyrrolo [2,3-d]pyrimidin-2-ylamino)-N-methylbenzamide], which IC50 is on record?
Answer: Its IC50 is 100 to 400 nM.

Question: `CNC(=O)c1ccc(-c2c[nH]c3nc(Nc4ccc(C(=O)NCCO)cc4OC)nc(OC4CCCC4)c23)cc1` [Example 258, 4-(4-(cyclopentyloxy)-5-(4-(methylcarbamoyl)phenyl)-7H-pyrrolo[2,3-d]pyrimidin-2-ylamino)-N-(2-hydroxyethyl)-3-methoxybenzamide] was tested. Which IC50 did it give?
Answer: Its IC50 is less than 100 nM.
